Results published in PMC7948422, “Repurposing p97 inhibitors for chemical modulation of the bacterial ClpB–DnaK bichaperone system” (The Journal of Biological Chemistry, 2020).

Assays:
E. coli dnaK756 = experiment: Bacterial viability, dnaK756; type: cell-based, Escherichia coli; details: 45 °C
Method: E. coli MC4100, MC4100ΔclpB, dnaK103, and dnaK756 strains were used to determine an influence of DBeQ on bacterial growth and viability. Bacteria were maintained in the LB media, and in the case of the MC4100ΔclpB strain, LB was supplemented with 30 μg/ml kanamycin. All experiments were initiated by preparing overnight cultures inoculated from single colonies and grown at 37 °C. The dnaK103 and dnaK756 overnight cultures were grown at 30 °C. On the following day, the cultures were diluted 100-fold in 10 ml of LB without antibiotics and incubated at 37 °C. The culture optical density was monitored at 600 nm. When absorbance at 600 nm reached 0.4, the culture was divided into 1-ml aliquots and supplemented with 10 μl of DMSO or different concentrations of DBeQ in DMSO. The samples were immediately transferred into an incubator/shaker at temperature 37, 45, or 50 °C. Bacteria were cultured for up to 4 h with shaking (200 RPM). At specific time points, 100 μl of each culture was withdrawn and serially diluted in sterile 0.9% NaCl up to 10^6-fold dilution. To estimate the number of viable cells, 5 μl or 10 μl of the diluted cultures was spread on the LB-agar plate without an antibiotic. […] On the following day, the bacterial colonies were counted and the colony-forming units/ml were calculated.

ClpB = biological target: T1, ClpB (Escherichia coli, UniProt P63284); experiment: Pilot chemical library screen of ClpB ATPase (BioMol Green); type: biochemical; details: 388 bioactive compounds, in the presence of 25 μM κ-casein
T1 construct: made in house
Method: An absorbance-based assay for ClpB ATPase activity was developed by using BioMol Green Reagent (Enzo Life Sciences, Farmington, NY) for screening in a 384-microplate–based format. The optimized assay conditions were as follows: ClpB (150 nM), ATP ([…]), and κ-casein (25 μM) in 100-mM Tris/HCl, pH 8, 10-mM MgCl2, 1-mM DTT, and 1-mM EDTA. The samples were incubated for 10 min at 37 °C, and the ATP hydrolysis reaction was terminated by adding 80 μl of BIOMOL Green. Absorbance at 620 nm was measured with a PerkinElmer EnSpire. The optimized assay was used to screen compounds drawn from Selleck Bioactive library (1900 compounds; Selleck Chemicals, Houston, TX) in the presence or absence of κ-casein.

T1 sequence (P63284 whole entry): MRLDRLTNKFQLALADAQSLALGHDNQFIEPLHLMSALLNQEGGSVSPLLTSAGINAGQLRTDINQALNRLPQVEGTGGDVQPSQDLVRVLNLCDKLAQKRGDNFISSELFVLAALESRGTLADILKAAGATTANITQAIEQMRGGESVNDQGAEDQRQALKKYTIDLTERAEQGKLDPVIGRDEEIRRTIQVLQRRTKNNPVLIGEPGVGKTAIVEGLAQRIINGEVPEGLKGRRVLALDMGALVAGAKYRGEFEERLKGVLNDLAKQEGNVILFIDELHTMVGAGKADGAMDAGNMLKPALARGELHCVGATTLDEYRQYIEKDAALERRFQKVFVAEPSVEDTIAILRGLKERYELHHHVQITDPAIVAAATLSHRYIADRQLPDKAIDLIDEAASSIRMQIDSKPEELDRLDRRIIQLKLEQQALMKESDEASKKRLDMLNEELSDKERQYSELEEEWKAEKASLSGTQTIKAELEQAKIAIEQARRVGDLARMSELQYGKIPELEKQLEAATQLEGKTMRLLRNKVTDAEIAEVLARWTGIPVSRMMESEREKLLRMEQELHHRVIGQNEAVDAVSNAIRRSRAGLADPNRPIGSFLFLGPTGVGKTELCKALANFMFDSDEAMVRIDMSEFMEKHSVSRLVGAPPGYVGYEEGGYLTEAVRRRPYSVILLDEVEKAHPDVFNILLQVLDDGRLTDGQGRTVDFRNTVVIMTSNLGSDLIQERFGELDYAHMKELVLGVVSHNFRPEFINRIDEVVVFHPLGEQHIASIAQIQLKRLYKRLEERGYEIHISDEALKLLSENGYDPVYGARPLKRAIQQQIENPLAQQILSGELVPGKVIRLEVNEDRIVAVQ

Structure (SMILES): c1ccc(CNc2nc(NCc3ccccc3)c3ccccc3n2)cc1 [DBeQ, N^2,N^4-dibenzylquinazoline-2,4-diamine]
- effect on viability of dnaK756 (E. coli dnaK756): not affected
- candidate ClpB ATPase inhibitor in pilot screen (ClpB): candidate ClpB ATPase inhibitor
